Mortality data for 4 compounds are collected here from patent US11576382B2, “Naphthalene isoxazoline compounds for controlling invertebrate pests” (FMC Corporation, priority 2018, dated 2023).

What all share (format): in vivo
Test [1] relates to potato leafhopper (Empoasca fabae (Harris)). Put plainly: Test D: control of potato leafhopper through contact and/or systemic means. The settings on record: 144 h. Here is the method:
(§1) Formulation and Spray Methodology for Tests A-H
(§2) Test compounds were formulated using a solution containing 10% acetone, 90% water and 300 ppm Activator 90® non-ionic surfactant (Loveland Products, Loveland, Colo., USA). The formulated compounds were applied in 1 mL of liquid through an atomizer nozzle positioned 1.27 cm (0.5 inches) above the top of each test unit. Test compounds were sprayed at the rates indicated, and each test was replicated three times.
For evaluating control of potato leafhopper (Empoasca fabae (Harris)) through contact and/or systemic means, the test unit consisted of a small open container with a 5-6-day-old Soleil bean plant (primary leaves emerged) inside. White sand was added to the top of the soil, and one of the primary leaves was excised prior to application of the test compound.
Test compounds were formulated and sprayed at 250, 50, 10 and 2 ppm. After spraying of the formulated test compound, the test units were allowed to dry for 1 hour before they were post-infested with 5 potato leafhoppers (18-to-21-day-old adults). A black, screened cap was placed on the top of the test unit, and the test units were held for 6 days in a growth chamber at 20° C. and 70% relative humidity. Each test unit was then visually assessed for insect mortality.

Test [2] relates to cotton melon aphid (Aphis gossypii (Glover)). Put plainly: Test F: control of cotton melon aphid through contact and/or systemic means. The settings on record: 144 h. Here is the method: as §1, §2
For evaluating control of cotton melon aphid (Aphis gossypii (Glover)) through contact and/or systemic means, the test unit consisted of a small open container with a 5-day-old okra plant inside. This was pre-infested with 30-40 insects on a piece of leaf according to the cut-leaf method, and the soil of the test unit was covered with a layer of sand.
Test compounds were formulated and sprayed at 250, 50 and 10 ppm. After spraying, the test units were maintained in a growth chamber for 6 days at 19° C. and 70% relative humidity. Each test unit was then visually assessed for insect mortality.

Test [3] has as its system sweetpotato whitefly (Bemisia tabaci (Gennadius)). Put plainly: Test G: control of sweetpotato whitefly through contact and/or systemic means. The settings on record: in Gossypium hirsutum, 312 h. Here is the method:
as §1, §2
For evaluating control of the sweetpotato whitefly (Bemisia tabaci (Gennadius)) through contact and/or systemic means, the test unit consisted of a small open container with a 12-14-day-old cotton plant inside. Prior to the spray application, both cotyledons were removed from the plant, leaving one true leaf for the assay. Adult whiteflies were allowed to lay eggs on the plant and then were removed from the test unit. Cotton plants infested with at least 15 eggs were submitted to the test for spraying.
Test compounds were formulated and sprayed at 250, 50, and 10 ppm. After spraying, the test units were allowed to dry for 1 hour. The cylinders were then removed, and the units were taken to a growth chamber and held for 13 days at 28° C. and 50-70% relative humidity. Each test unit was then visually assessed for insect mortality.

The test system of test [4] is green peach aphid (Myzus persicae (Sulzer)). Nature of the test: Test E: control of green peach aphid through contact and/or systemic means. The settings on record: in Raphanus sativus, 144 h. Here is the method: as §1, §2
For evaluating control of green peach aphid (Myzus persicae (Sulzer)) through contact and/or systemic means, the test unit consisted of a small open container with a 12-15-day-old radish plant inside. This was pre-infested by placing on a leaf of the test plant 30-40 aphids on a piece of leaf excised from a culture plant (cut-leaf method). The aphids moved onto the test plant as the leaf piece desiccated. After pre-infestation, the soil of the test unit was covered with a layer of sand.
Test compounds were formulated and sprayed at 250, 50 and 10 ppm. After spraying of the formulated test compound, each test unit was allowed to dry for 1 hour and then a black, screened cap was placed on top. The test units were held for 6 days in a growth chamber at 19-21° C. and 50-70% relative humidity. Each test unit was then visually assessed for insect mortality.

Regarding `C[C@@H](NC(=O)c1ccc(C2=NOC(c3cc(Cl)c(F)c(Cl)c3)(C(F)(F)F)C2)c2ccccc12)C(N)=O` (stereo partly drawn) [Compound 1, N-[(1R)-2-amino-1-methyl-2-oxoethyl]-4-[5-(3,5-dichloro-4-fluorophenyl)-4,5-dihydro-5-(trifluoromethyl)-3-isoxazolyl]-1-naphthalenecarboxamide], in test [1], the mortality (as a rule, the percentage killed) at 50 ppm is at least 80% and the mortality at 250 ppm is at least 80%. This compound returned a mortality at 250 ppm in test [2] of at least 80%.
Take `O=C(NCc1ccccn1)c1ccc(C2=NOC(c3cc(Cl)c(F)c(Cl)c3)(C(F)(F)F)C2)c2ccccc12` (stereo not drawn) [Compound 15, 4-[5-(3,5-dichloro-4-fluorophenyl)-4,5-dihydro-5-(trifluoromethyl)-3-isoxazolyl]-N-(2-pyridinylmethyl)-1-naphthalenecarboxamide]: the mortality at 50 ppm in test [3] was at least 70%. For the same compound, in test [1], the mortality at 2 ppm was at least 80%, the mortality at 10 ppm was at least 80% and the mortality at 50 ppm was at least 80%.
Turning to `CON=CNC(=O)c1ccc(C2=NOC(c3cc(Cl)c(F)c(Cl)c3)(C(F)(F)F)C2)c2ccccc12` (stereo not drawn) [Compound 33, 4-[5-(3,5-dichloro-4-fluorophenyl)-4,5-dihydro-5-(trifluoromethyl)-3-isoxazolyl]-N-[(methoxyimino)methyl]-1-naphthalenecarboxamide], the figures for the mortality at 2 ppm in test [3] and in test [1] were at least 70% and at least 80%, respectively. Further, the mortality at 10 ppm in test [3] was at least 70%; in test [1], at least 80%; in test [2], at least 80%. Also, the mortality at 50 ppm is at least 70% in test [3], at least 80% in test [4], at least 80% in test [1] and at least 80% in test [2].
Take `COC(=O)CNC(=O)c1ccc(C2=NOC(c3cc(Cl)c(F)c(Cl)c3)(C(F)(F)F)C2)c2ccccc12` (stereo not drawn) [Compound 35, N-[[4-[5-(3,5-dichloro-4-fluorophenyl)-4,5-dihydro-5-(trifluoromethyl)-3-isoxazolyl]-1-naphthalenyl]carbonyl]glycine methyl ester]: the mortality at 50 ppm in test [4] and in test [2] was at least 80% throughout. Also, the mortality at 250 ppm in test [4], in test [1] and in test [2] was at least 80% throughout.
